Measurements reported in patent EP4541891A1, “NOVEL LRP1-BINDING PEPTIDE” (Ichimaru Pharcos Co., Ltd., priority 2022, dated 2025).
Bridge positions count the residues as written; N and C are the ends. Square brackets hold non-standard residues; d marks the D form. Ends that are not written are not given here. Peptide text beside a SMILES is read from it. * marks the point of attachment. 5FAM = O=C1OC2(c3ccc(O)cc3Oc3cc(O)ccc32)c2ccc(C(=O)*)cc21; Biotin = O=C1N[C@H]2[C@H](CS[C@H]2CCCCC(=O)*)N1; Nle = CCCC[C@H](N)C(=O)O

Assays:
[1] = test system: LRP1 cluster 2-Fc chimeric proteins; test: ELISA binding test of biotin-labeled peptides; conditions: biotinylated peptide 1,000 nM to 1.4 nM
Description: (§1) To evaluate the binding activity of the peptides to LRP1, an ELISA-based binding assay was constructed. The ELISA method will be briefly described below. First, a goat antihuman IgG-Fcγ polyclonal antibody (Catalog No. 109-0005-008, manufactured by Jackson Immuno Research) was added to a 96-well Maxisorp plate (Catalog No. 439454, manufactured by Nunc) at 1 µg/50 µL/well using D-PBS, followed by coating overnight at 4°C. Then, 0.5% BSA/D-PBS was further added at 300 µL/well, and blocking was carried out at room temperature for 30 minutes. After washing the plate with 0.1% Tween 20/D-PBS, LRP1 recombinant proteins, namely, LRP1 cluster 2-Fc chimeric proteins (Catalog No. 2368-L2-050, manufactured by R & D Systems), LRP1 cluster 3-Fc chimeric proteins (Catalog No. 48248-L3-050, manufactured by R & D Systems), or LRP1 cluster 4-Fc chimeric proteins (Catalog No. 5395-L4-050, manufactured by R & D Systems), were added at 100 ng/50 µL/well using 0.5% BSA/D-PBS, and allowed to react with the coated antibodies at room temperature for 30 minutes. After washing the plate with 0.1% Tween 20/PBS, Sequences 45 and 46, which were biotinylated peptides, were prepared at an arbitrary concentration using 0.5% BSA/D-PBS, and added at 50µL/well. After causing a reaction at room temperature for 30 minutes, the plate was washed with 0.1% Tween 20/D-PBS. Sequences 45 and 46 bound to the LRP1 recombinant proteins captured on the plate were detected with SA-HRP (Catalog No. ab7403, manufactured by Abeam). For quantification of HRP, TMB ELISA Substrate Solution (Catalog No. 34028, manufactured by Thermo Fisher) was used to measure absorbance at 450 nm.

[2] = test system: LRP1 cluster 3-Fc chimeric proteins; test: ELISA binding test of biotin-labeled peptides; conditions: biotinylated peptide 1,000 nM to 1.4 nM
Description: as §1

[3] = test system: LRP1 cluster 4-Fc chimeric proteins; test: ELISA binding test of biotin-labeled peptides; conditions: for binding to the LRP1 cluster 4-Fc chimeric proteins: biotinylated peptide 1,000 nM to 1.4 nM; for EC50: biotinylated peptide, SA-HRP detection, absorbance at 450 nm, n = 4
Description: as §1

[4] = test system: LRP1 cluster 4-Fc chimeric proteins; test: Competitive binding assay by ELISA against Sequence 46
Description: (§2) For comparison between the peptide of Sequence 1 with amino acid substitutions and the peptide of Sequence 2 in terms of the LRP1 binding activity and the resistance to protease degradation, a competitive binding assay by ELISA shown in FIG. 2 was constructed. Immediately (zero hour) or 24 hours after the mixing of the peptide of Sequence 2 or the amino acid-substituted peptide with mouse plasma at 37°C, the mixture was diluted to sufficiently lower the plasma concentration to any desired final concentration, and mixed with Sequence 46 (500 nM). This mixture was subjected to the competitive binding assay described above. The binding of Sequence 46 to the LRP1 cluster 4-Fc chimera proteins competes with the binding of Sequence 2 or the amino acid-substituted peptide to the LRP1 cluster 4-Fc chimera proteins, and thus is inhibited depending on the concentration of Sequence 2 or the amino acid-substituted peptide. That is, the binding activity of Sequence 2 or the amino acid-substituted peptide to the LRP1 cluster 4-Fc chimera proteins is detected as competitive inhibitory activity against the binding of Sequence 46. Regarding the binding value of Sequence 46 to the wells in which the LRP1 cluster 4-Fc chimeric proteins were not captured as 100% inhibitory activity and the binding value of Sequence 46 to the wells in which Sequence 2 or the amino acid-substituted peptide was not added as 0% inhibitory activity, the inhibitory activity values of Sequence 2 and the amino acid-substituted peptide were calculated in %.
Sequence 2 incubated with plasma for zero hour inhibited the binding of Sequence 46 in a concentration-dependent manner. […] However, the binding of Sequence 46 (500 nM) in wells loaded with 2,000 nM equivalent Sequence 2 averaged 50.6%.
Immediately or 24 hours after Sequences 1 to 44 were mixed with mouse plasma at 37°C, the mixtures were diluted to sufficiently lower the plasma concentration to a final concentration of 2,000 nM, and mixed with Sequence 46 (500 nM). The obtained mixtures were subjected to the above-described competitive binding assay. […] Other sequences tended to have diminished inhibitory activities.

[5] = Resistance to protease degradation in mouse plasma, read out by competitive binding ELISA; assay type: in vitro ADME; conditions: 37°C, inferred from loss of inhibitory activity
Description: as §2, with “The binding of Sequence 46 to the LRP1 cluster 4-Fc chimera proteins competes with the binding of Sequence 2 or the amino acid-substituted peptide to the LRP1 cluster 4-Fc chimera proteins, and thus is inhibited depending on the concentration of Sequence 2 or the amino acid-substituted peptide.” left out, “%. […]” for “%.”

[6] = target: LRP1 cluster 4-Fc chimeric proteins (UniProt Q07954); test: competitive ELISA, LRP1 cluster 4-Fc captured; peptide 2,000 nM against biotin-Sequence 46 500 nM
UniProt Q07954, sequence (Q07954 3293-3783, stated change not applied): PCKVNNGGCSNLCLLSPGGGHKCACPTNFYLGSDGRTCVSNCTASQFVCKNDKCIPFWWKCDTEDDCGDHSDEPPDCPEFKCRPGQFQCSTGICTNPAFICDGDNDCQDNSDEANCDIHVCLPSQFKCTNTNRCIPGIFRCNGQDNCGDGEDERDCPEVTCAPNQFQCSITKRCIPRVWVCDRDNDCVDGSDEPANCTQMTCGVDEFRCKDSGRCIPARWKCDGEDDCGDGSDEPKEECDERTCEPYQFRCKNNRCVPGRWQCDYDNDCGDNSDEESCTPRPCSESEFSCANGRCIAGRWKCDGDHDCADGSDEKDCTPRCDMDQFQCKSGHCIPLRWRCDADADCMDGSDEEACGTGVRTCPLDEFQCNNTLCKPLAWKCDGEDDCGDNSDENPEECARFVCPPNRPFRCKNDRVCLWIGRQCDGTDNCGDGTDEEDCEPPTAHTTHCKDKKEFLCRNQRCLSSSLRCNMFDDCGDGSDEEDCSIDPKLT

[7] = target: LRP1 cluster 4-Fc chimeric proteins (UniProt Q07954); test: competitive ELISA, LRP1 cluster 4-Fc captured; Sequence 2 at 2,000 nM equivalent after 24 h in mouse plasma at 37 C (about 75% degraded) against biotin-Sequence 46 500 nM
[8] = target: LRP1 cluster 4-Fc chimeric proteins (UniProt Q07954); test: competitive ELISA, LRP1 cluster 4-Fc captured; Sequence 2 at 500 nM (zero hour in mouse plasma) against biotin-Sequence 46 500 nM

Molecule | binding to the LRP1 cluster 2-Fc chimeric proteins [1] | binding to the LRP1 cluster 3-Fc chimeric proteins [2] | binding to the LRP1 cluster 4-Fc chimeric proteins [3] | EC50 [3] [nM] | other results
Ac-K(Biotin)GTPCTYKY[Nle]LAE[Nle]C-OH (cysteine pairing not given here) [Sequence 45] | little or no binding | little or no binding | selectively and in a peptide concentration-dependent manner | 10.5 | –
CCCC[C@@H]1NC(=O)[C@H](CCC(=O)O)NC(=O)[C@H](C)NC(=O)[C@H](CC(C)C)NC(=O)[C@H](CCCC)NC(=O)[C@H](Cc2ccc(O)cc2)NC(=O)[C@H](CCCCN)NC(=O)[C@H](Cc2ccc(O)cc2)NC(=O)[C@H]([C@@H](C)O)NC(=O)[C@@H](NC(=O)[C@@H]2CCCN2C(=O)[C@@H](NC(=O)CNC(=O)[C@H](CCCCNC(=O)c2ccc3c(c2)C(=O)OC32c3ccc(O)cc3Oc3cc(O)ccc32)NC(C)=O)[C@@H](C)O)CSSC[C@@H](C(=O)O)NC1=O [Sequence 2, Ac-Lys(5FAM)-Gly-Thr-Pro-c(Cys-Thr-Tyr-Lys-Tyr-Nle-Leu-Ala-Glu-Nle-Cys)-OH] (Ac-K(5FAM)GTPCTYKY[Nle]LAE[Nle]C-OH; disulfide 5-15) | – | – | – | – | inhibitory activity ([4]; peptide 2,000 nM versus Sequence 46 (500 nM), time point not stated): 79.4%; binding of Sequence 46 (500nM) ([4]; wells loaded with 2,000 nM equivalent Sequence 2, incubated with mouse plasma for 24 hours at 37°C, average): 50.6%; binding of Sequence 46 (500nM) ([4]; wells with 500 nM Sequence 2, incubated with mouse plasma for zero hour, n = 4, average): 52.4%; degraded during the 24-hour incubation with the mouse plasma [5]: approximately 75%
CCCC[C@@H]1NC(=O)[C@H](CCC(=O)O)NC(=O)[C@H](C)NC(=O)[C@H](CC(C)C)NC(=O)[C@H](CCCC)NC(=O)[C@H](Cc2ccc(O)cc2)NC(=O)[C@H](CCCCN)NC(=O)[C@H](Cc2ccc(O)cc2)NC(=O)[C@H]([C@@H](C)O)NC(=O)[C@@H](NC(=O)[C@@H]2CCCN2C(=O)[C@@H](NC(=O)CNC(=O)[C@H](CCCCNC(=O)CCCC[C@@H]2SC[C@@H]3NC(=O)N[C@@H]32)NC(C)=O)[C@@H](C)O)CSSC[C@@H](C(=O)O)NC1=O [Sequence 46, Ac-Lys(Biotin)-Gly-Thr-Pro-c(Cys-Thr-Tyr-Lys-Tyr-Nle-Leu-Ala-Glu-Nle-Cys)-OH] (Ac-K(Biotin)GTPCTYKY[Nle]LAE[Nle]C-OH; disulfide 5-15) | little or no binding | little or no binding | selectively and in a peptide concentration-dependent manner | 11 | –
Ac-K(5FAM)GTPCTYKY[Nle]LAE[Nle]C (disulfide 5-15) [SEQUENCE 2] | – | – | – | – | inhibitory activity (%) [6]: 79.4%; binding of Sequence 46 (%) in the presence of the peptide [7]: 50.6%; binding of Sequence 46 (%) in the presence of the peptide [8]: 52.4%
